Source: patent publication US9969744B2, “Compounds for use in cognition improvement” (FUNDACIÓN PARA LA INVESTIGACIÓN MÉDICA APLICADA, priority 2014, dated 2018)

Columns and labels:
[1] = molecular target: T1, PDE9A (Homo sapiens, UniProt O76083); assay: PDE enzyme activity assay (HTRF cGMP), PDE9A; type: biochemical; details: recombinant enzyme; read-out: PDE9A inhibition (IC50)
T1 construct: they are full-length with N-terminal GST tag; GST (N); purchased BPS Biosciences 60090; host or cells: baculovirus infected Sf9 cells
T1 sequence (O76083 1-533 isoform O76083-2): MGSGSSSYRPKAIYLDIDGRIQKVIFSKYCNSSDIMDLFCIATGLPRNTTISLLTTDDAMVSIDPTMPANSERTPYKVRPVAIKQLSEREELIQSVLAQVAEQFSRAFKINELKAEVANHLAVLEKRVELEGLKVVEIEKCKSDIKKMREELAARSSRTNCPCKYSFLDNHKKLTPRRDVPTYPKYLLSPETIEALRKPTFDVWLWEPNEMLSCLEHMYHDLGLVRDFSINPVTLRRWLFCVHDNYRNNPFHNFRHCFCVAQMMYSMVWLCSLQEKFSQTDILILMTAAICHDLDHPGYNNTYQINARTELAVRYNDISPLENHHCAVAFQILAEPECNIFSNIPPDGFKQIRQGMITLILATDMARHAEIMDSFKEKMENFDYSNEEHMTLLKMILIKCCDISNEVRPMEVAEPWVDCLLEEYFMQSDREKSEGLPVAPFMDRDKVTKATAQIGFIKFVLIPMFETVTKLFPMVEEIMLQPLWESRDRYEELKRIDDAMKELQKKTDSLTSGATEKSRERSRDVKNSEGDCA

[2] = system: pTau; assay: AD-related markers in Tg2576 mice: pTau; type: in vivo; details: hippocampal homogenates, footnote: single dose of 1 mg/Kg i.p.
[3] = system: phosphorylated tau (p-Tau); assay: AD-related markers in Tg2576 neurons: pTau; type: cell-based, mouse; details: Mus musculus, Primary neuron, references, read-out: pTau EC50 (50% decrease in pTau levels over basal)
Experimental: The effects of the compounds on amyloid pathology were analysed in primary cultures after 21 days in-vitro (DIV) of neurons derived from the hippocampus and cortex of Tg2576 mouse embryos. Tg2576 mice express the human 695-aa isoform of APP (hAPP) containing the Swedish double mutation, which favours A3 production. Neurons were treated for two days and collected at day 3, 24 h after the last treatment. First it was analysed the effect of the compounds on hAPP processing by the amyloidogenic pathway by measuring the carboxyl terminal fragment AβPP (C99), which is the precursor of Aβ42. […]
It was next analyzed the effect of the compounds on levels of phosphorylated tau (p-Tau) in the same samples, another marker of AD, using a phospho-specific antibody (AT8) that recognizes hyperphosphorylated epitopes on Ser202/Thr205. […]
To analyze APP-derived fragments and p-Tau levels in primary neuronal cultures, cells were collected in a buffer containing SDS (2%), Tris-HCl (10 mM, pH 7.4), protease inhibitors (1 mM phenylmethylsulfonyl fluoride (PMSF) and Complete Protease Inhibitor Cocktail: Roche Diagnostics) and phosphatase inhibitors (0.1 mM Na3VO4 and 1 mM NaF). […] Aliquots of the supernatant were frozen at […] and their protein concentrations determined by the Bradford method using the Bio-Rad protein assay (Bio-Rad, Hercules, Calif., USA). […]

[4] = system: AcH3; assay: In-vivo AcH3 in hippocampus of wild type mice; parameters: key: basal x1 means no increment (+); basal x1.4≤(++)<basal x2; basal x2≤(+++)<basal x3; basal x3≤(++++); N.E. means No Effect; details: single dose of 1 mg/Kg i.p.
Experimental: (§1) Another group of animals received the vehicle (1/1/8, v:v:v, DMSO/Tween 20/saline). One hour later, mice were sacrificed by cervical dislocation and their hippocampus was quickly dissected from the brains. Total tissue homogenates were obtained by homogenizing the hippocampus in a cold lysis buffer with protease inhibitors (0.2 M NaCl, 0.1 M HEPES, 10% glycerol, 200 mM NaF, 2 mM Na4P2O7, 5 mM EDTA, 1 mM EGTA, 2 mM DTT, 0.5 mM PMSF, 1 mM Na3VO4 and Complete Protease Inhibitor Cocktail, Roche Diagnostics). The homogenate was then centrifuged at 14,000×g at 4° C. for 20 min and the supernatant aliquoted and stored at −80° C. Total protein concentrations were determined using the BioRad Bradford protein assay (BioRad Laboratories). Protein samples were analyzed as described in the “in vitro” section.

[5] = system: acetylated histone 3 at Lys9 (AcH3K9); assay: HDAC activity using SHSY-5Y cell line (Western blot, histone 3 acetylation); type: cell-based, human; parameters: key: basal x1 means no increment (+); basal x1.4≤(++)<basal x2; basal x2≤(+++)<basal x3; basal x3≤(++++); N.E. means No Effect; details: SHSY-5Y cells, 24 hours, compound concentration 1 μM
Experimental: HDAC inhibition leads to the corresponding functional response, increase in AcH3 level. Therefore, the cellular assay to conclude HDAC activity was assessed by Western blot analysis using specific antibodies against acetylated histone 3 at Lys9 (AcH3K9). Cell cultures were treated at 100 nM, 500 nM, 1 μM and/or 5 μM with compounds of the invention or known PDE inhibitors during 24 hours and, Table 1 (below) describes the functional activity: histone 3 acetylation level (AcH3) vs basal (no treatment).
A human neuroblastoma cell line (SHSY-5Y) was used. Cell line was obtained from ATCC (CRL-2266) and cultured in 35 mm plates (Becton Dickinson, NJ).
The cells were grown to 90% confluence at 37° C. in an atmosphere of 5% CO2 and in Dulbecco's modified Eagle's medium supplemented with Glutamax (Gibco, Invitrogen, CA), 100 units/ml penicillin/streptomycin, 1×MEM nonessential amino acids and 10% fetal bovine serum (Gibco, Invitrogen, CA).
Cells were collected and sonicated in a buffer containing a cold lysis buffer with protease inhibitors (0.2 M NaCl, 0.1 M HEPES (4-(2-hydroxyethyl)-1-piperazineethanesulfonic acid), 10% glycerol, 200 mM NaF, 2 mM Na4P2O7, 5 mM EDTA (ethylenediaminetetraacetic acid), 1 mM EGTA (ethylene glycol tetraacetic acid), 2 mM DTT (dithiothreitol), 0.5 mM PMSF (phenylmethylsulfonyl fluoride), 1 mM Na3VO4 and Complete Protease Inhibitor Cocktail, Roche Diagnostics), centrifuged at 14,000×g 4° C. for 20 min and the supernatant was aliquoted and stored at −80° C. Total protein concentrations were determined using the BioRad Bradford protein assay (BioRad Laboratories).
Protein samples were mixed with Laemmli sample buffer, resolved onto Sodium Dodecyl Sulfate (SDS)-polyacrylamide gels and transferred to nitrocellulose membrane. The membranes were blocked with 5% milk, 0.05% Tween-20 in PBS (Phosphate-Buffered Saline) or TBS (Tris-Buffered Saline) followed by overnight incubation with the following primary antibodies: rabbit polyclonal anti-acetylated Histone 3 (acetyl K9) (Cell Signalling Technology), rabbit polyclonal anti-total Histone 3 (Millipore), in the corresponding buffer. All the antibodies were used at 1:1000 dilution except the mouse monoclonal anti-β-actin which was used at 1:50.000. Following two washes in TBS/Tween20 and one wash in TBS alone, immunolabeled protein bands were detected by using HRP-conjugated anti-rabbit or anti-mouse antibody (Santa Cruz Biotechnology; dilution 1:5.000) following an enhanced chemiluminescence system (ECL, GE Healthcare Bioscience, Buckinghamshire, UK), and autoradiographic exposure to HyperfilmtECL (GE Healthcare Bioscience). Quantity One™ software v.4.6.3 (Bio-Rad) was used for quantification.

[6] = system: pCREB; assay: In-vivo pCREB in hippocampus of wild type mice; details: single dose of 1 mg/Kg i.p.
Experimental: as §1

SMILES: CN1CC(=O)N2[C@H](c3ccc4c(c3)OCO4)c3[nH]c4ccccc4c3C[C@@H]2C1=O [Tadalafil]
- IC50 [1]: > 10000 nM
- pTau biological response vs basal [2]: +++ (basal x2≤(+++)<basal x3)
- EC50 [3]: 10 to 1000 nM
- AcH3 increment vs basal [4]: N.E.
- AcH3: increment in Histone 3 acetylation level vs basal [5]: N.E.
- pCREB increment vs basal [6]: +++ (basal x2≤(+++)<basal x3)
